pIC50: −log10 of the molar value. Read-outs that look alike come from different tables or passages of the source.
How the values were obtained:
[1] = tested on: p-IKKα levels in L363 (NIK translocated multiple myeloma) cells; assay: Effect of compounds on p-IKKα levels in L363 cells (AlphaLISA SureFire Ultra); type: cell-based, human; details: Homo sapiens, 10 μM MG132, 6 h, average of values obtained, read-out: Assay 2 IC50
Procedure: Effect of Compounds on p-IKKα Levels in L363 (NIK Translocated Multiple Myeloma) Cells
All compounds tested were dissolved and serially diluted in DMSO, 1:3 dilution for 11 points in an Echo compatible plate. 100% DMSO was added to columns 12 and 24 of the plate to serve as high and low signal controls. This compound plate was used to spot 20 nL of compound or DMSO into a Greiner 384 well TC plate (781080). The final DMSO concentration was 0.3% (v/v) in cell assays. Human L363 cells (ATCC) were cultured in RPMI1640 medium supplemented with GlutaMax, non-essential amino acids, sodium pyruvate and 10% fetal bovine serum. Cells were routinely maintained at densities of […]-2×10^6 cells per mL at 37° C. in a humidified 5% CO2 atmosphere incubator. Cells were passaged twice a week splitting back to obtain the low density. The day before the assay, cells were washed twice in HBSS (Hank's Balanced Salt Solution), resuspended in Dulbecco's Modified Eagle Medium (DMEM)+0.5% IgG and protease free BSA (Jackson Immuno Research Laboratories), +/−250 ng/ml recombinant human B-cell activating factor (BAFF/BLyS/TNFSF13B) and incubated overnight at 37° C. in a humidified 5% CO2 atmosphere (bulk stimulation with or without BAFF). The next day, the cell concentration was adjusted to 1×10^7 cells/ml in DMEM+/−250 ng/ml BAFF+/10 μM MG132 and plated at […] into compound or DMSO spotted 384 well TC plates. Seeded cells were incubated at 37° C. in a humidified 5% CO2 atmosphere for 6 h. After 6 h, the plates were removed from the incubator and cell lysis was achieved by the addition of 2.5 μl 5×lysis buffer containing protease and phosphatase inhibitors, followed by shaking on a plate shaker at room temperature for 15 min. At the end of this incubation, lysed cells were sequentially treated and incubated with acceptor and donor bead mixes according to the manufacturer's protocol for a 1 plate/2-incubation suspension cell assay (AlphaLISA SureFire Ultra p-IKKa (Ser 176/180) Assay Kit (Perkin Elmer). Plates were read using an EnVision Multilabel Plate Reader (Perkin Elmer). Within an experiment, a concentration response curve for each compound was run in duplicate. The signal obtained in the test wells was normalized using high signal (BAFF stimulated cells, DMSO, MG132) and low signal (unstimulated cells, DMSO) controls. To determine the IC50, a sigmoidal curve was fitted to the plot of % inhibition versus Log10 compound concentration.

[2] = biological target: recombinant human NF-kappaB-inducing kinase (NIK/MAP3K14) (Homo sapiens, UniProt Q99558); assay: Inhibition of auto-phosphorylation of recombinant human NIK/MAP3K14 activity (AlphaScreen); type: biochemical; details: GST-tagged NIK/MAP3K14 1 nM, 5 μM ATP, 2 h at 25° C.; average of values obtained
Sequence of recombinant human NF-kappaB-inducing kinase (NIK/MAP3K14) (Q99558 whole entry): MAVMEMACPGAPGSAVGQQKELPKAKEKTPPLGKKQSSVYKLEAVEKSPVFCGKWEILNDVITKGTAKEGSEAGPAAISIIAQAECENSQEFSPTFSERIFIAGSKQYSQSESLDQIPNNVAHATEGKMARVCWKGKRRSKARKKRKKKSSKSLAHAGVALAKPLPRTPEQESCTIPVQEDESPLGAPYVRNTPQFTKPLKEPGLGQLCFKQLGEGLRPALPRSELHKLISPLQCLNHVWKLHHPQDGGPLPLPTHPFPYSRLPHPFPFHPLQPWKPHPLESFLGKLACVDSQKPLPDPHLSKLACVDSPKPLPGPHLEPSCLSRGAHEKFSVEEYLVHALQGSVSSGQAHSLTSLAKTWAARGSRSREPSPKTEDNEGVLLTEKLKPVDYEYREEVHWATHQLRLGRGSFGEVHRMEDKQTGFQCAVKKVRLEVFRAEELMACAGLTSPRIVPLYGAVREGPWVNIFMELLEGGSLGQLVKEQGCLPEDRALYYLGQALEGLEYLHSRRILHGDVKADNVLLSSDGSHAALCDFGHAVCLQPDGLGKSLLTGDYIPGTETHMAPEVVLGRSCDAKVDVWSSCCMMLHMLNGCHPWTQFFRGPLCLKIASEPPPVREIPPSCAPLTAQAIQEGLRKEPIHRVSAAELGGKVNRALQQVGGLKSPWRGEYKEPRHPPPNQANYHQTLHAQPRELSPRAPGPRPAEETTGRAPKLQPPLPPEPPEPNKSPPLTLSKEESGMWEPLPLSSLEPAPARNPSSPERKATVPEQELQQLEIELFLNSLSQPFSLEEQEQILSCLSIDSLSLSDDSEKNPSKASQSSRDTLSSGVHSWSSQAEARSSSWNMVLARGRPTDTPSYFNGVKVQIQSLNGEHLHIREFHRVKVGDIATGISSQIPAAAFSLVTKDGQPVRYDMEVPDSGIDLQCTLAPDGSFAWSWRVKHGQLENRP
Procedure: Inhibition of Auto-Phosphorylation of Recombinant Human NF-kappaB-Inducing Kinase (NIK/MAP3K14) Activity (AlphaScreen®)
NIK/MAP3K14 auto-phosphorylation activity was measured using the AlphaScreen® (αscreen) format (Perkin Elmer). All compounds tested were dissolved in dimethyl sulfoxide (DMSO) and further dilutions were made in assay buffer. The final DMSO concentration was 0.7% (v/v) in assays. The assay buffer was 50 mM Tris pH 7.5 containing 1 mM EGTA (ethylene glycol tetraacetic acid), 1 mM DTT (dithiothreitol), 0.1 mM Na3VO4, 5 mM MgCl2, and 0.01% Tween® 20. The assays were carried out in 384 well Proxiplates (Perkin Elmer). The incubations consisted of the compound, 5 μM Adenosine-5′-triphosphate (ATP), and 1 nM NIK/MAP3K14. Incubations were initiated by the addition of GST-tagged NIK/MAP3K14 enzyme, carried out for 2 h at 25° C. and terminated by addition of stop buffer containing anti-phospho-IKK Ser176/180 antibody. Protein A Acceptor and Glutathione-Donor beads were added before reading using an EnVision Multilabel Plate Reader (Perkin Elmer). The signal obtained in the wells was normalized using high (full enzyme activity, 0.7% DMSO) and low controls (no enzyme activity, 0.7% DMSO, no ATP). IC50's were determined by fitting a sigmoidal curve to % inhibition of control versus Log10 compound concentration.

[3] = L-363, 6 h, 250 ng/ml BAFF stimulated
[4] = L-363, 250 ng/ml BAFF stimulated

Compound	pIC50 [1, 3]	pIC50 [2]	pIC50 [1, 4]
O[C@@]1(c2cccc(-c3csc(-c4c[nH]c5ncc(C(F)(F)F)cc45)n3)c2)CCn2ccnc21 [Example 25, (R)-7-(3-(2-(5-(Trifluoromethyl)-1H-pyrrolo[2,3-b]pyridin-3-yl)thiazol-4-yl)phenyl)-6,7-dihydro-5H-pyrrolo[1,2-a]imidazol-7-ol]	6.30 to 7.00	≥ 7.00	–
N#Cc1cnc2[nH]cc(-c3nc(-c4cccc([C@]5(O)CCn6ccnc65)c4)cs3)c2c1 [Example 26, (R)-3-(4-(3-(7-Hydroxy-6,7-dihydro-5H-pyrrolo[1,2-a]imidazol-7-yl)phenyl)thiazol-2-yl)-1H-pyrrolo[2,3-b]pyridine-5-carbonitrile]	≥ 7.00	≥ 7.00	–
O[C@@]1(c2cccc(-c3csc(-c4c[nH]c5ncc(Cl)cc45)n3)c2)CCn2ccnc21 [Example 27, (R)-7-(3-(2-(5-Chloro-1H-pyrrolo[2,3-b]pyridin-3-yl)thiazol-4-yl)phenyl)-6,7-dihydro-5H-pyrrolo[1,2-a]imidazol-7-ol]	≥ 7.00	≥ 7.00	–
CS(=O)(=O)c1cnc2[nH]cc(-c3nc(-c4cccc([C@]5(O)CCn6ccnc65)c4)cs3)c2c1 [Example 28, (R)-7-(3-(2-(5-(Methylsulfonyl)-1H-pyrrolo[2,3-b]pyridin-3-yl)thiazol-4-yl)phenyl)-6,7-dihydro-5H-pyrrolo[1,2-a]imidazol-7-ol]	6.30 to 7.00	≥ 7.00	–
O[C@@]1(c2cccc(-c3csc(-c4c[nH]c5nccc(F)c45)n3)c2)CCn2ccnc21 [Example 29, (R)-7-(3-(2-(4-Fluoro-1H-pyrrolo[2,3-b]pyridin-3-yl)thiazol-4-yl)phenyl)-6,7-dihydro-5H-pyrrolo[1,2-a]imidazol-7-ol]	≥ 7.00	≥ 7.00	–
O[C@@]1(c2cccc(-c3coc(-c4c[nH]c5ncccc45)c3)c2)CCn2ccnc21 [Example 30, (R)-7-(3-(5-(1H-Pyrrolo[2,3-b]pyridin-3-yl)furan-3-yl)phenyl)-6,7-dihydro-5H-pyrrolo[1,2-a]imidazol-7-ol]	< 6.30	≥ 7.00	–
O[C@@]1(c2cccc(-c3csc(-c4c[nH]c5nccnc45)n3)c2)CCn2ccnc21 [Example 41, (R)-7-(3-(2-(5H-Pyrrolo[2,3-b]pyrazin-7-yl)thiazol-4-yl)phenyl)-6,7-dihydro-5H-pyrrolo[1,2-a]imidazol-7-ol]	≥ 7.00	≥ 7.00	–
O[C@]1(c2cccc(-c3csc(-c4c[nH]c5nccnc45)n3)c2)CCn2ccnc21 [Example 42, (S)-7-(3-(2-(5H-Pyrrolo[2,3-b]pyrazin-7-yl)thiazol-4-yl)phenyl)-6,7-dihydro-5H-pyrrolo[1,2-a]imidazol-7-ol]	< 6.30	6.30 to 7.00	–
O=C1N(CC(F)(F)F)CC[C@]1(O)c1cccc(-c2csc(-c3c[nH]c4nccnc34)n2)c1 [Example 43, (S)-3-(3-(2-(5H-Pyrrolo[2,3-b]pyrazin-7-yl)thiazol-4-yl)phenyl)-3-hydroxy-1-(2,2,2-trifluoroethyl)pyrrolidin-2-one]	–	< 6.30	< 6.30
O=C1N(CC(F)(F)F)CC[C@@]1(O)c1cccc(-c2csc(-c3c[nH]c4nccnc34)n2)c1 [Example 44, (R)-3-(3-(2-(5H-Pyrrolo[2,3-b]pyrazin-7-yl)thiazol-4-yl)phenyl)-3-hydroxy-1-(2,2,2-trifluoroethyl)pyrrolidin-2-one]	–	< 6.30	< 6.30
CN1C[C@@](O)(c2cccc(-c3csc(-c4c[nH]c5nccnc45)n3)c2)C1=O [Example 45, (S)-3-(3-(2-(5H-Pyrrolo[2,3-b]pyrazin-7-yl)thiazol-4-yl)phenyl)-3-hydroxy-1-methylazetidin-2-one]	–	< 6.30	< 6.30
CN1C[C@](O)(c2cccc(-c3csc(-c4c[nH]c5nccnc45)n3)c2)C1=O [Example 46, (R)-3-(3-(2-(5H-Pyrrolo[2,3-b]pyrazin-7-yl)thiazol-4-yl)phenyl)-3-hydroxy-1-methylazetidin-2-one]	–	< 6.30	< 6.30
COc1cnc2[nH]cc(-c3nc(-c4cccc([C@]5(O)CCN(C)C5=O)c4)cs3)c2c1 [Example 49, (R)-3-Hydroxy-3-(3-(2-(5-methoxy-1H-pyrrolo[2,3-b]pyridin-3-yl)thiazol-4-yl)phenyl)-1-methylpyrrolidin-2-one]	–	≥ 7.00	6.30 to 7.00
CN1CC[C@@](O)(c2cccc(-c3nc(-c4c[nH]c5ncccc45)sc3CO)c2)C1=O [Example 50, (R)-3-Hydroxy-3-(3-(5-(hydroxymethyl)-2-(1H-pyrrolo[2,3-b]pyridin-3-yl)thiazol-4-yl)phenyl)-1-methylpyrrolidin-2-one]	–	≥ 7.00	< 6.30
CN1CC[C@@](O)(c2cccc(-c3csc(-c4c[nH]c5ncc(C(=O)O)cc45)n3)c2)C1=O [Example 51, (R)-3-(4-(3-(3-Hydroxy-1-methyl-2-oxopyrrolidin-3-yl)phenyl)thiazol-2-yl)-1H-pyrrolo[2,3-b]pyridine-5-carboxylic acid]	–	≥ 7.00	< 6.30
CN1CC[C@@](O)(c2cccc(-c3csc(-c4c[nH]c5ncncc45)n3)c2)C1=O [Example 53, (R)-3-(3-(2-(7H-Pyrrolo[2,3-d]pyrimidin-5-yl)thiazol-4-yl)phenyl)-3-hydroxy-1-methylpyrrolidin-2-one]	–	≥ 7.00	< 6.30
CN1CCC[C@@](O)(c2cccc(-c3csc(-c4c[nH]c5nccnc45)n3)c2)C1=O [Example 54, (R)-3-(3-(2-(5H-Pyrrolo[2,3-b]pyrazin-7-yl)thiazol-4-yl)phenyl)-3-hydroxy-1-methylpiperidin-2-one]	–	≥ 7.00	6.30 to 7.00
CN1CCC[C@](O)(c2cccc(-c3csc(-c4c[nH]c5nccnc45)n3)c2)C1=O [Example 55, (S)-3-(3-(2-(5H-Pyrrolo[2,3-b]pyrazin-7-yl)thiazol-4-yl)phenyl)-3-hydroxy-1-methylpiperidin-2-one]	–	< 6.30	< 6.30
CN1CC[C@@](O)(c2cccc(-c3nc(-c4c(F)[nH]c5ncccc45)cs3)c2)C1=O [Example 56, (R)-3-(3-(4-(2-Fluoro-1H-pyrrolo[2,3-b]pyridin-3-yl)thiazol-2-yl)phenyl)-3-hydroxy-1-methylpyrrolidin-2-one]	–	6.30 to 7.00	< 6.30
CN1CC[C@@](O)(c2cccc(-c3csc(-c4c(F)[nH]c5ncccc45)n3)c2)C1=O [Example 57, (R)-3-(3-(2-(2-Fluoro-1H-pyrrolo[2,3-b]pyridin-3-yl)thiazol-4-yl)phenyl)-3-hydroxy-1-methylpyrrolidin-2-one]	–	6.30 to 7.00	< 6.30
O[C@]1(c2cccc(-c3nc(-c4c[nH]c5ncccc45)cs3)c2)CCc2scnc21 [Example 58, (S)-4-(3-(4-(1H-Pyrrolo[2,3-b]pyridin-3-yl)thiazol-2-yl)phenyl)-5,6-dihydro-4H-cyclopenta[d]thiazol-4-ol]	< 6.30	6.30 to 7.00	–
O[C@@]1(c2cccc(-c3nc(-c4c[nH]c5ncccc45)cs3)c2)CCc2scnc21 [Example 59, (R)-4-(3-(4-(1H-Pyrrolo[2,3-b]pyridin-3-yl)thiazol-2-yl)phenyl)-5,6-dihydro-4H-cyclopenta[d]thiazol-4-ol]	≥ 7.00	≥ 7.00	–
